Experimental data taken from ChEMBL document CHEMBL1201862, “PubChem BioAssay data set” (2004).
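All cell lines were grown in 96-well plates and treated with compound for 48 hours. Here, GI50 denotes the concentration required for 50% inhibition of growth.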 Activity calls are given as the source filed them. No stated cut-off is given here; in the data, active = GI50 up to about 1.1 µM and inactive = higher.

Columns and labels:
Experiment in all cases: inhibition of tumour cell growth, NCI panel, 48 h
SK-MEL-2 = tested on: SK-MEL-2
SR = tested on: SR
T47D = tested on: T47D
NCI/ADR-RES = tested on: NCI/ADR-RES
HOP-18 = tested on: HOP-18
UACC-62 = tested on: UACC-62
Hs-578T = tested on: Hs-578T
SK-MEL-5 = tested on: SK-MEL-5
HOP-92 = tested on: HOP-92
OVCAR-3 = tested on: OVCAR-3
EKVX = tested on: EKVX
SW-620 = tested on: SW-620
SNB-78 = tested on: SNB-78
UACC-257 = tested on: UACC-257
RPMI-8226 = tested on: RPMI-8226
SK-OV-3 = tested on: SK-OV-3
HCC 2998 = tested on: HCC 2998
MCF7 = tested on: MCF7
SK-MEL-28 = tested on: SK-MEL-28
NCI-H226 = tested on: NCI-H226
NCI-H460 = tested on: NCI-H460
DLD-1 = tested on: DLD-1
KM12 = tested on: KM12
Malme-3M = tested on: Malme-3M
MDA-N = tested on: MDA-N
LOX IMVI = tested on: LOX IMVI
K562 = tested on: K562
HOP-62 = tested on: HOP-62
LXFL 529 = tested on: LXFL 529
M14 = tested on: M14
ACHN = tested on: ACHN
MDA-MB-231 = tested on: MDA-MB-231
XF498 = tested on: XF498
786-0 = tested on: 786-0
OVCAR-5 = tested on: OVCAR-5
IGROV-1 = tested on: IGROV-1
SN12C = tested on: SN12C
HL-60 = tested on: HL-60
DMS-273 = tested on: DMS-273
U-251 = tested on: U-251
COLO 205 = tested on: COLO 205
MDA-MB-435 = tested on: MDA-MB-435
OVCAR-4 = tested on: OVCAR-4
CAKI-1 = tested on: CAKI-1
RXF 393 = tested on: RXF 393
UO-31 = tested on: UO-31
SNB-75 = tested on: SNB-75
NCI-H522 = tested on: NCI-H522
OVCAR-8 = tested on: OVCAR-8
SNB-19 = tested on: SNB-19
HCT-15 = tested on: HCT-15
A549 = tested on: A549
HCT-116 = tested on: HCT-116
MOLT-4 = tested on: MOLT-4
SF-268 = tested on: SF-268
SF-539 = tested on: SF-539
HT-29 = tested on: HT-29
M19-MEL = tested on: M19-MEL
DU-145 = tested on: DU-145
NCI-H23 = tested on: NCI-H23
CCRF-CEM = tested on: CCRF-CEM
SF-295 = tested on: SF-295
PC-3 = tested on: PC-3
DMS-114 = tested on: DMS-114
A498 = tested on: A498
TK-10 = tested on: TK-10
BT-549 = tested on: BT-549
KM-20L2 = tested on: KM-20L2

With O=C1C(c2ccc([N+](=O)[O-])cc2)=C(Cl)C(=O)c2c(O)cccc21 the GI50 (SK-MEL-2) was 17.9 µM (inactive), the GI50 (SR) was > 100 µM (inactive) and the GI50 (T47D) was 20.9 µM (inactive). The GI50 (NCI/ADR-RES) was 28.4 µM (inactive), the GI50 (HOP-18) was 5.05 µM (inactive) and the GI50 (UACC-62) was 19.7 µM (inactive). The GI50 (Hs-578T) was 26.8 µM (inactive), the GI50 (SK-MEL-5) was 23.4 µM (inactive) and the GI50 (HOP-92) was 19 µM (inactive). For the same molecule, the GI50 (OVCAR-3) was 17.7 µM (inactive), the GI50 (EKVX) was 20.5 µM (inactive) and the GI50 (SW-620) was 4.18 µM (inactive). For the same molecule, the GI50 (SNB-78) was 25.5 µM (inactive), the GI50 (UACC-257) was 18.4 µM (inactive) and the GI50 (RPMI-8226) was 41.3 µM (inactive). The GI50 (SK-OV-3) was 50.8 µM (inactive), the GI50 (HCC 2998) was 52.6 µM (inactive) and the GI50 (MCF7) was 18.8 µM (inactive). For the same molecule, the GI50 (SK-MEL-28) was 18.9 µM (inactive), the GI50 (NCI-H226) was > 43.2 µM (inactive) and the GI50 (NCI-H460) was 52.8 µM (inactive). The GI50 (DLD-1) was 11 µM (inactive), the GI50 (KM12) was 25.6 µM (inactive) and the GI50 (Malme-3M) was 19.6 µM (inactive). The GI50 (MDA-N) was 20.2 µM (inactive), the GI50 (LOX IMVI) was 17.3 µM (inactive) and the GI50 (K562) was 11.4 µM (inactive). For the same molecule, the GI50 (HOP-62) was 34.4 µM (inactive), the GI50 (LXFL 529) was 9.51 µM (inactive) and the GI50 (M14) was 21 µM (inactive). The GI50 (ACHN) was 18.5 µM (inactive), the GI50 (MDA-MB-231) was 17.1 µM (inactive) and the GI50 (XF498) was 10.6 µM (inactive). For the same molecule, the GI50 (786-0) was 15.5 µM (inactive), the GI50 (OVCAR-5) was 40.7 µM (inactive) and the GI50 (IGROV-1) was 26.4 µM (inactive). The GI50 (SN12C) was 22.3 µM (inactive), the GI50 (HL-60) was 4.12 µM (inactive) and the GI50 (DMS-273) was 28 µM (inactive). For the same molecule, the GI50 (U-251) was 17.9 µM (inactive), the GI50 (COLO 205) was 17.3 µM (inactive) and the GI50 (MDA-MB-435) was 17.7 µM (inactive). The GI50 (OVCAR-4) was 17.3 µM (inactive), the GI50 (CAKI-1) was 23.7 µM (inactive) and the GI50 (RXF 393) was 14.7 µM (inactive). For the same molecule, the GI50 (UO-31) was 13.5 µM (inactive), the GI50 (SNB-75) was 35.3 µM (inactive) and the GI50 (NCI-H522) was 7.87 µM (inactive). The GI50 (OVCAR-8) was 27.5 µM (inactive), the GI50 (SNB-19) was 22.5 µM (inactive) and the GI50 (HCT-15) was 25.5 µM. For the same molecule, the GI50 (A549) was 97.7 µM (inactive), the GI50 (HCT-116) was 27.9 µM (inactive) and the GI50 (MOLT-4) was 3.66 µM (inactive). The GI50 (SF-268) was 23.1 µM (inactive), the GI50 (SF-539) was 20.2 µM (inactive) and the GI50 (HT-29) was 21 µM (inactive). For the same molecule, the GI50 (M19-MEL) was 18.2 µM (inactive), the GI50 (DU-145) was 20.7 µM (inactive) and the GI50 (NCI-H23) was 18.1 µM (inactive). The GI50 (CCRF-CEM) was 4.56 µM (inactive), the GI50 (SF-295) was > 54.1 µM (inactive) and the GI50 (PC-3) was 26.1 µM (inactive). The GI50 (DMS-114) was 7.31 µM (inactive), the GI50 (A498) was 25.3 µM (inactive) and the GI50 (TK-10) was 20.2 µM (inactive). For the same molecule, the GI50 (BT-549) was 17.1 µM (inactive).

In the case of Clc1cc(Cl)c2c(Cl)cc(Cl)c3c2c1N=S=N3, the GI50 (SK-MEL-2) was > 100 µM (inactive), the GI50 (HOP-18) was > 100 µM (inactive) and the GI50 (UACC-62) was 62.5 µM (inactive). The GI50 (SK-MEL-5) was > 100 µM (inactive), the GI50 (HOP-92) was > 100 µM (inactive) and the GI50 (OVCAR-3) was > 100 µM (inactive). For the same molecule, the GI50 (EKVX) was > 100 µM (inactive), the GI50 (SW-620) was > 100 µM (inactive) and the GI50 (SNB-78) was > 100 µM (inactive). The GI50 (UACC-257) was > 100 µM (inactive), the GI50 (RPMI-8226) was > 100 µM (inactive) and the GI50 (SK-OV-3) was > 100 µM (inactive). For the same molecule, the GI50 (HCC 2998) was > 100 µM (inactive), the GI50 (SK-MEL-28) was > 100 µM (inactive) and the GI50 (NCI-H226) was > 100 µM (inactive). For the same molecule, the GI50 (DLD-1) was 83.8 µM (inactive), the GI50 (KM12) was > 100 µM (inactive) and the GI50 (Malme-3M) was > 100 µM (inactive). For the same molecule, the GI50 (LOX IMVI) was > 100 µM (inactive), the GI50 (K562) was > 100 µM (inactive) and the GI50 (LXFL 529) was > 100 µM (inactive). The GI50 (M14) was > 100 µM (inactive), the GI50 (XF498) was 12.9 µM (inactive) and the GI50 (786-0) was > 100 µM (inactive). For the same molecule, the GI50 (OVCAR-5) was > 100 µM (inactive), the GI50 (IGROV-1) was > 100 µM (inactive) and the GI50 (HL-60) was 94.6 µM (inactive). The GI50 (DMS-273) was > 100 µM (inactive), the GI50 (U-251) was > 100 µM (inactive) and the GI50 (COLO 205) was > 100 µM (inactive). For the same molecule, the GI50 (OVCAR-4) was > 100 µM (inactive), the GI50 (CAKI-1) was > 100 µM (inactive) and the GI50 (RXF 393) was > 100 µM (inactive). For the same molecule, the GI50 (UO-31) was > 100 µM (inactive), the GI50 (SNB-75) was > 100 µM (inactive) and the GI50 (NCI-H522) was > 100 µM (inactive). For the same molecule, the GI50 (OVCAR-8) was > 100 µM (inactive), the GI50 (SNB-19) was > 100 µM (inactive) and the GI50 (HCT-15) was 67.1 µM. The GI50 (A549) was > 100 µM (inactive), the GI50 (HCT-116) was > 100 µM (inactive) and the GI50 (MOLT-4) was 2.86 µM (inactive). For the same molecule, the GI50 (SF-268) was > 100 µM (inactive), the GI50 (SF-539) was > 100 µM (inactive) and the GI50 (HT-29) was > 100 µM (inactive). The GI50 (M19-MEL) was > 100 µM (inactive), the GI50 (NCI-H23) was > 100 µM (inactive) and the GI50 (CCRF-CEM) was 52.1 µM (inactive). The GI50 (SF-295) was > 100 µM (inactive), the GI50 (DMS-114) was > 100 µM (inactive) and the GI50 (KM-20L2) was > 100 µM (inactive). For the same molecule, the GI50 (A498) was 6.68 µM (inactive) and the GI50 (TK-10) was > 100 µM (inactive).
